This passage reports IC50 results from patent publication US8530650B2, “2, 5-diamino-substituted pyrido [4, 3-D] pyrimidines as autotaxin inhibitors against cancer” (MERCK PATENT GmbH, priority 2008, dated 2013).

Where only a bound is given, the exact number is not on record here.

This test has as its target T1, recombinant autotaxin (Homo sapiens, UniProt Q13822).
T1 construct: made in house; host or cells: Hi5 insect cells (baculovirus)
The test can be described thus: Autotaxin assay (Amplex Red, LPC substrate). It is filed as biochemical. The settings on record: 75 μM LPC, Amplex Red fluorescence, ten 1:3 dilutions starting at 30 μM. The procedure: Autotaxin activity is measured indirectly by means of Amplex Red Reagent. In this course, Amplex Red is measured as fluorogenic indicator for generated H2O2. Autotaxin converts substrate lysophosphatidylcholine (LPC) to phosphocholine and lysophosphatidylic acid (LPA). After the conversion phosphocholine is reacted with alkaline phosphatase to obtain inorganic phosphate and choline. During the next step choline is oxidized with choline oxidase to yield betaine, whereby H2O2 is generated. H2O2 reacts with Amplex Red Reagent in the presence of peroxidase (Horseradish peroxidase) in an 1:1 stochiometry and yields highly fluorescent resorufin. The generated fluorescence is measured in a reaction-dependent kinetic mode in order to enable subtraction of fluorescence signals of possible other fluorescent compounds that are not part of the reaction from total measured fluorescence.
1.5 μl of a standard solution or of the compounds of the invention are dissolved in 20 mM Hepes pH 7.2 with maximally 7.7% DMSO in individual concentrations. The resulting solution is pre-incubated together with 10 μl (16 ng) of highly purified recombinant autotaxin in a black 384-hole microtiter plate for 30 min at 22° C. Thereafter, the reaction is started through the addition of 5 μL-a-lysophosphatidylcholine (LPC), whereby the final concentration of LPC is 75 μM. The mixture is incubated for 90 min. at 37° C. After the incubation Amplex Red Reagent, peroxidase (Horseradish peroxidase) and choline oxidase are added. The fluorescence is immediately measured at a wavelength of 612 nm with an excitation wavelength of 485 nm in a “Tecan Ultra multimode” fluorescence reader. The activity of autotaxin is indirectly calculated via the amount of detected generated H2O2.
For IC50 analysis, ten serial 1:3 dilutions starting at 30 μM for each compound were run in duplicates.
IC50 values were calculated on normalized data. For normalization, control wells were added to each assay plate and the signal of uninhibited control wells was set to 100%, whereas the signal inhibited by 500 μM C14 LPA, (Avanti Polar Lipids, Cat# 857120P) was set to 0%. Curves were fitted and IC50 values calculated by the following model using proprietary analysis software: Y=Bottom+(100−Bottom)/(1+10^((LogIC50−X)*HillSlope))
Where X is the logarithm of concentration. Y is the response; Y starts at Bottom and goes to Top with a sigmoid shape.
Protein: Recombinant autotaxin (baculoviral Hi5 expression)
Substrate: L-a-lysophosphatidyl choline (chicken egg); Avanti Polar Lipids #830071 P
Standard: C14 LPA, Avanti Polar Lipids, Cat# 857120P
Detection Reagent Amplex Red Reagent; Invitrogen #A12222; dissolved in 1.923 ml of DMSO peroxidase Type VI-A (horseradish), Sigma #P6782; dissolved in 7.45 ml of test buffer, Choline Oxidase; Sigma #C5896; dissolved in 2.47 ml test buffer
Detection Reagent Mix: 1:100 dilution of Amplex Red Regent in test buffer
Test buffer: 200 mM Tris-HCl, Merck, Cat # 1.08219, pH 7.9; 0.1% BSA, lipid free, Roche Cat#775835
As to `CCOc1ccccc1Nc1nccc2nc(NCc3ccccc3OC)ncc12` [Compound 32, N5-(2-Ethoxy-phenyl)-N2-(2-methoxy-benzyl)-pyrido[4,3-d]pyrimidine-2,5-diamine], the IC50 is < 30 µM.
Regarding `COc1ccccc1CNc1ncc2c(Nc3ccc(F)cc3)nccc2n1` [Compound 33, N5-(4-Fluoro-phenyl)-N2-(2-methoxy-benzyl)-pyrido[4,3-d]pyrimidine-2,5-diamine], the IC50 is < 30 µM.
In the case of `COc1ccccc1CNc1ncc2c(Nc3ccccc3C)nccc2n1` [Compound 34, N2-(2-Methoxy-benzyl)-N5-o-tolyl-pyrido[4,3-d]pyrimidine-2,5-diamine], the IC50 was < 30 µM.
With `COc1ccc(Nc2nccc3nc(NCc4ccccc4OC)ncc23)cc1` [Compound 35, N2-(2-Methoxy-benzyl)-N5-(4-methoxy-phenyl)-pyrido[4,3-d]pyrimidine-2,5-diamine], the IC50 is < 30 µM.
Turning to `COc1ccccc1CNc1ncc2c(Nc3ccc(C)cc3)nccc2n1` [Compound 36, N2-(2-Methoxy-benzyl)-N5-p-tolyl-pyrido[4,3-d]pyrimidine-2,5-diamine], the IC50 was < 30 µM.
To `COc1ccccc1CNc1ncc2c(Nc3ccc(F)cc3F)nccc2n1` [Compound 37, N5-(2,4-Difluoro-phenyl)-N2-(2-methoxy-benzyl)-pyrido[4,3-d]pyrimidine-2,5-diamine] belongs < 30 µM; to `COc1ccccc1CNc1ncc2c(Nc3ccc(OC)c(OC)c3)nccc2n1` [Compound 38, N5-(3,4-Dimethoxy-phenyl)-N2-(2-methoxy-benzyl)-pyrido[4,3-d]pyrimidine-2,5-diamine], < 30 µM; to `COc1ccccc1CNc1ncc2c(Nc3ccc4c(c3)OCCO4)nccc2n1` [Compound 39, N5-(2,3-Dihydro-benzo[1,4]dioxin-6-yl)-N2-(2-methoxy-benzyl)-pyrido[4,3-d]pyrimidine-2,5-diamine], < 30 µM.
As to `COc1ccc(Nc2nccc3nc(NCc4ccccc4OC)ncc23)c(OC)c1` [Compound 40, N5-(2,4-Dimethoxy-phenyl)-N2-(2-methoxy-benzyl)-pyrido[4,3-d]pyrimidine-2,5-diamine], the IC50 is < 30 µM.
As to `COc1ccccc1CNc1ncc2c(Nc3ccc(F)cc3C)nccc2n1` [Compound 41, N5-(4-Fluoro-2-methyl-phenyl)-N2-(2-methoxy-benzyl)-pyrido[4,3-d]pyrimidine-2,5-diamine], the IC50 is < 30 µM.
In the case of `Fc1ccc(Nc2nccc3nc(NCc4ccc(Cl)cc4)ncc23)cc1` [Compound 42, N2-(4-Chloro-benzyl)-N5-(4-fluoro-phenyl)-pyrido[4,3-d]pyrimidine-2,5-diamine], the IC50 was < 30 µM.
For `Cc1ccccc1Nc1nccc2nc(NCc3ccc(Cl)cc3)ncc12` [Compound 43, N2-(4-Chloro-benzyl)-N5-o-tolyl-pyrido[4,3-d]pyrimidine-2,5-diamine], the half-maximal inhibitory concentration (IC50) was < 30 µM.
For the molecule `COc1ccc(Nc2nccc3nc(NCc4ccc(Cl)cc4)ncc23)cc1` [Compound 44, N2-(4-Chloro-benzyl)-N5-(4-methoxy-phenyl)-pyrido[4,3-d]pyrimidine-2,5-diamine], the half-inhibitory concentration (IC50) is < 30 µM.
`Fc1ccc(Nc2nccc3nc(NCc4ccc(Cl)cc4)ncc23)c(F)c1` [Compound 45, N2-(4-Chloro-benzyl)-N5-(2,4-difluoro-phenyl)-pyrido[4,3-d]pyrimidine-2,5-diamine]: the IC50 is < 30 µM.
In the case of `Clc1ccc(CNc2ncc3c(Nc4ccc5c(c4)OCO5)nccc3n2)cc1` [Compound 46, N5-Benzo[1,3]dioxol-5-yl-N2-(4-chloro-benzyl)-pyrido[4,3-d]pyrimidine-2,5-diamine], the 50% inhibitory concentration (IC50) is < 30 µM.
As to `COc1ccc(Nc2nccc3nc(NCc4ccc(Cl)cc4)ncc23)cc1OC` [Compound 47, N2-(4-Chloro-benzyl)-N5-(3,4-dimethoxy-phenyl)-pyrido[4,3-d]pyrimidine-2,5-diamine], the IC50 is < 30 µM.
Take `Fc1ccc(Nc2nccc3nc(NCc4ccc(Cl)cc4)ncc23)cc1F` [Compound 48, N2-(4-Chloro-benzyl)-N5-(3,4-difluoro-phenyl)-pyrido[4,3-d]pyrimidine-2,5-diamine]: the IC50 is < 30 µM.
To `Cc1cc(F)ccc1Nc1nccc2nc(NCc3ccc(Cl)cc3)ncc12` [Compound 49, N2-(4-Chloro-benzyl)-N5-(4-fluoro-2-methyl-phenyl)-pyrido[4,3-d]pyrimidine-2,5-diamine] belongs < 30 µM; to `COC(=O)c1ccc(Nc2nccc3nc(NCc4ccc(Cl)cc4)ncc23)cc1` [Compound 50, 4-[2-(4-Chloro-benzylamino)-pyrido[4,3-d]pyrimidin-5-ylamino]-benzoic acid methyl ester], < 30 µM; to `COc1ccc(CNc2ncc3c(Nc4cc(OC)ccc4OC)nccc3n2)cc1` [Compound 51, N5-(2,5-Dimethoxy-phenyl)-N2-(4-methoxy-benzyl)-pyrido[4,3-d]pyrimidine-2,5-diamine], < 30 µM.
For `COc1ccc(CNc2ncc3c(Nc4ccc(F)cc4F)nccc3n2)cc1` [Compound 52, N5-(2,4-Difluoro-phenyl)-N2-(4-methoxy-benzyl)-pyrido[4,3-d]pyrimidine-2,5-diamine] the value was < 30 µM.
Regarding `COc1ccc(CNc2ncc3c(Nc4ccc5c(c4)OCO5)nccc3n2)cc1` [Compound 53, N5-Benzo[1,3]dioxol-5-yl-N2-(4-methoxy-benzyl)-pyrido[4,3-d]pyrimidine-2,5-diamine], the IC50 is < 30 µM.
On to `COc1ccc(CNc2ncc3c(Nc4ccc(OC)c(OC)c4)nccc3n2)cc1` [Compound 54, N5-(3,4-Dimethoxy-phenyl)-N2-(4-methoxy-benzyl)-pyrido[4,3-d]pyrimidine-2,5-diamine], for which the concentration for half-maximal inhibition (IC50) is < 30 µM.
Turning to `COc1ccc(CNc2ncc3c(Nc4ccc5c(c4)OCCO5)nccc3n2)cc1` [Compound 55, N5-(2,3-Dihydro-benzo[1,4]dioxin-6-yl)-N2-(4-methoxy-benzyl)-pyrido[4,3-d]pyrimidine-2,5-diamine], the IC50 was < 30 µM.
For `COc1ccc(CNc2ncc3c(Nc4ccc(OC)cc4OC)nccc3n2)cc1` [Compound 56, N5-(2,4-Dimethoxy-phenyl)-N2-(4-methoxy-benzyl)-pyrido[4,3-d]pyrimidine-2,5-diamine], the IC50 is < 30 µM.
For the molecule `COc1ccc(CNc2ncc3c(Nc4ccc(C#N)cc4)nccc3n2)cc1` [Compound 57, 4-[2-(4-Methoxy-benzylamino)-pyrido[4,3-d]pyrimidin-5-ylamino]-benzonitrile], the IC50 is < 30 µM.
For `COc1ccc(CNc2ncc3c(Nc4ccc(F)c(F)c4)nccc3n2)cc1` [Compound 58, N5-(3,4-Difluoro-phenyl)-N2-(4-methoxy-benzyl)-pyrido[4,3-d]pyrimidine-2,5-diamine] the value was < 30 µM.
Take `COc1ccc(CNc2ncc3c(Nc4ccc(F)cc4C)nccc3n2)cc1` [Compound 59, N5-(4-Fluoro-2-methyl-phenyl)-N2-(4-methoxy-benzyl)-pyrido[4,3-d]pyrimidine-2,5-diamine]: the IC50 was < 10 µM.
Turning to `O=C(NCc1ccco1)C1CCN(c2nccc3nc(NCc4ccccc4)ncc23)CC1` [Compound 60, 1-(2-Benzylamino-pyrido[4,3-d]pyrimidin-5-yl)-piperidine-4-carboxylic acid (furan-2-ylmethyl)-amide], the IC50 was < 30 µM.
For `CC(C)NC(=O)C1CCN(c2nccc3nc(NCc4ccccc4)ncc23)CC1` [Compound 61, 1-(2-Benzylamino-pyrido[4,3-d]pyrimidin-5-yl)-piperidine-4-carboxylic acid isopropylamide], the IC50 is < 30 µM.
In the case of `O=C(NCc1cccnc1)C1CCN(c2nccc3nc(NCc4ccccc4Cl)ncc23)CC1` [Compound 62, 1-[2-(2-Chloro-benzylamino)-pyrido[4,3-d]pyrimidin-5-yl]-piperidine-4-carboxylic acid (pyridin-3-ylmethyl)-amide], the IC50 is < 5 µM.
As for `CCN(CC)CCCNC(=O)C1CCN(c2nccc3nc(NCc4ccccc4Cl)ncc23)CC1` [Compound 63, 1-[2-(2-Chloro-benzylamino)-pyrido[4,3-d]pyrimidin-5-yl]-piperidine-4-carboxylic acid (3-diethylamino-propyl)-amide], the IC50 is < 10 µM.

Usually IC50 stands for the concentration that inhibits the measured activity by half.
